≈ marks a conversion by molar mass, not a printed value.
Experiments:
[1] = system: herpes simplex virus (HSV) type 1; settings: cited from earlier work
[2] = system: herpes simplex virus (HSV) type 2; settings: cited from earlier work
cytomegalovirus (CMV) = settings: CMV having no thymidine kinase (TK); Clinic and Study, vol. 70, No.8 (1993); cited from earlier work
TK⁺VZV OKA strain = test: Assay for antiviral activity (plaque formation in HEL cells); assay type: cell-based, Varicella-zoster virus (VZV); settings: Human alphaherpesvirus 3, HEL, 120 h, read-out: Antiviral Activity IC₅₀ (µg/mL)
Description: (§1) The nucleoside derivative of the invention is further examined in antivairal activity to varicella-zoster virus (VZV) and cytotoxicity by the following tests.
(§2) Human embryonic lung fibroblast (HEL cell, ATCC CCL-137)
(§3) Culture: The cell is cultured in a minimum essential medium (MEM, Gibco) supplemented with 10% inactivated bovine fetal serum, 1% L-glutamine, and 0.3% sodium hydrogen carbonate.
(§4) • (a) Thymidine kinase-positive (TK⁺) strain OKA & YS • (b) Thymidine kinase-deficient (TK⁻) strain YS/R & 07/1
(§5) Cells cultured on a 96-well microtiter plate are inoculated with the virus at an input of 20 plaque formation units (PFU). The cultured cells are incubated at 37°C for 2 hours. Subsequently, remaining virus is removed, and the incubated cells are again cultured in a MEM medium to which are added the test compound, 10% inactivated bovine fetal serum, 1% L-glutamine, and 0.3% sodium hydrogen carbonate in duplicate. After five days culture, the microtiter plate is fixed by ethanol, stained by Giemsa staining method, and microscopically observed for measurement of number of plaques formed. The results are indicated by IC₅₀ (i.e., concentration at which the plaque formation by virus is inhibited by 50%.

TK⁺VZV YS strain = test: as above; assay type: cell-based, Varicella-zoster virus (VZV); settings: Human alphaherpesvirus 3, HEL, 120 h, read-out: Antiviral Activity IC₅₀ (µg/mL)
Description: as §1, §2, §3, §4, §5

TK⁻VZV 07/1 strain = test: as above; assay type: cell-based, Varicella-zoster virus (VZV); settings: Human alphaherpesvirus 3, HEL, 120 h, read-out: Antiviral Activity IC₅₀ (µg/mL)
Description: as §1, §2, §3, §4, §5

TK⁻VZV YS/R strain = test: as above; assay type: cell-based, Varicella-zoster virus (VZV); settings: Human alphaherpesvirus 3, HEL, 120 h, read-out: Antiviral Activity IC₅₀ (µg/mL)
Description: as §1, §2, §3, §4, §5

[3] = Assay for cytotoxicity (cell growth, Coulter Counter); assay type: cell-based; settings: human; HEL cells; 3 days incubation; cell growth inhibited by 50%; read-out: Cytotoxicity CC₅₀
Description: as §2, §3
HEL cellls of 3 x 10³ cells/well are seeded into a 96 well microtiter plate and allowed to proliferate in a MEM medium containing 10% inactivated bovine fetal serum at 37°C for 24 hours. Subsequently, the medium is changed into a MEM medium containing different concentrations of the tested compound, and then the incubation is continued for another 3 days. When monolayer cells are grown to 70%, number of cells is countered by Coulter Counter. The cytotoxicity is indicated by CC₅₀ (i.e., concentration at which the cell growth is inhibited by 50%.).

SMILES | concentration showing inhibitory effect [1] | concentration showing inhibitory effect [2] | effectiveness to cytomegalovirus (CMV) (cytomegalovirus (CMV)) | IC50 (TK⁺VZV OKA strain) | IC50 (TK⁺VZV YS strain) | IC50 (TK⁻VZV 07/1 strain) | IC50 (TK⁻VZV YS/R strain) | CC50 at 72 h [3]
Nc1nc2c(ncn2COCCO)c(=O)[nH]1 [Acyclovir] | less than 0.05 µL/mL | less than 0.05 µL/mL | not effective | – | – | – | – | –
Nc1ncnc2c1ncn2[C@@H]1O[C@H](COC2(c3ccccc3)c3ccccc3Oc3ccccc32)[C@@H](OC2(c3ccccc3)c3ccccc3Oc3ccccc32)[C@H]1OC1CCCCO1 (some centres unmarked) [Example 2, 2'-O-Tetrahydropyranyl-3',5'-O-di(9-phenylxanthenyl)adenosine] | – | – | – | 2 µg/mL (≈ 2.31 µM) | 1 µg/mL (≈ 1.16 µM) | 0.8 µg/mL (≈ 0.926 µM) | 2 µg/mL (≈ 2.31 µM) | > 50 µg/mL

— EP0617046A1, “Nucleoside derivatives and antiherpes composition” (NIPPON CHEMIPHAR CO., LTD., priority 1993, dated 1994)
